These results are taken from US5158952A, “3-[2-[4-(6-fluoro-1,2-benzisoxozol-3-yl)-1-piperidinyl]ethyl]-6,7,8,9 tetrahydro-9-hydroxy-2-methyl-4H-pyrido [1,2-a]pyrimidin-4-one, compositions and method of use” (Janssen Pharmaceutica N.V., priority 1989, dated 1992).

Broadly, the ED50 is the midpoint of the dose-response relation.

Common to all, as to type: in vivo
Test [1] concerns dopamine. Briefly: apomorphine test in dogs (duration of action). As to conditions: for (APO)-dog test, ED50, 4 hr: 240 min; for (APO)-dog test, ED50, 16 hr: 960 min; for ED50: Canis lupus familiaris. From the text:
The compounds of formula (I) show the additional advantage of being eliminated rather slowly from the body and thus of being long acting. This can be evidenced, for example, by measuring the plasma levels after oral administration to dogs and by the long acting antiemetic effect exerted by the present compounds on dogs challenged with the dopamine agonist apomorphine. Especially the compounds of formula (I) wherein R^3 is a higher alkylcarbonyloxy radical have a long duration of action. […] Consequently, the present compounds allow for a more efficient therapy: the slow elimination facilitates maintaining a stable plasma concentration at a non-toxic, effective level and the reduction in the number of administrations may be expected to result in better compliance of the subject to be treated with the prescribed medication.
(§1) The antipsychotic activity of the subject compounds is evidenced by the experimental data obtained in at least one of two different test procedures, viz. the combined apomorphine (APO), tryptamine (TRY) and norepinephrine (NOR) test in rats, and the apomorphine test in dogs. Said combined apomorphine, tryptamine and norepinephrine test is described in Ach. int. Pharmacodyn., 227, 238-253 (1977) and provides an empirical evaluation of the relative specificity with which drugs may effect particular neurotransmitter systems centrally (CNS) as well as peripherally. […] Said apomorphine test in dogs is described in Arzneim.-Forsch. (Drug Res.), 9, 765-767 (1959) and provides a measure of the duration of action of the tested compounds.

Test [2] has as its system dopamine. In words: combined apomorphine (APO), tryptamine (TRY) and norepinephrine (NOR) test in rats: apomorphine. As to conditions: for ED50: Rattus norvegicus.
Source text: as §1

The subject of test [3] is serotonin. In words: combined APO, TRY, NOR test in rats: tryptamine convulsions (central). As to conditions: for ED50: Rattus norvegicus.
Source text: as §1

Test [4] has as its system serotonin. In words: combined APO, TRY, NOR test in rats: tryptamine hyperaemia (peripheral). As to conditions: for ED50: Rattus norvegicus.
Source text: as §1

The next test relates to norepinephrine. Briefly: combined APO, TRY, NOR test in rats: norepinephrine. As to conditions: for ED50: Rattus norvegicus.
Source text: as §1

The mark [5] stands for this setting: 1 h, read-out: (APO)-dog test, ED50, 1 hr.

In the case of `Cc1nc2n(c(=O)c1CCN1CCC(c3noc4cc(F)ccc34)CC1)CCCC2O` (single isomer, unassigned; (-)) [Compound 3, (-)-3-[2-[4-(6-fluoro-1,2-benzisoxazol-3-yl)-1-piperidinyl]-ethyl]-6,7,8,9-tetrahydro-9-hydroxy-2-methyl-4H-pyrido[1,2-a]-pyrimidin-4-one], the “(APO)-dog test, ED50, 1 hr” value in the test with dopamine [1] (1 hr, 60 min) is reported as 0.008 mg/kg. Further, in the test on dopamine [1], the “(APO)-dog test, ED50, 4 hr” value turned out to be 0.007 mg/kg and the “(APO)-dog test, ED50, 16 hr” value is 0.015 mg/kg. Also, the “(APO) ED50” value in the test with dopamine [2] stood at 0.31 mg/kg. Also, the “(TRY)-convulsions ED50” value with serotonin [3] is on record as 0.31 mg/kg. The “(TRY)-hyperaemia ED50” value in the test on serotonin [4] is listed as 0.00063 mg/kg. Moreover, the “(NOR) ED50” value in the test on norepinephrine worked out at 0.63 mg/kg.

For the compound `CCCC(=O)OC1CCCn2c1nc(C)c(CCN1CCC(c3noc4cc(F)ccc34)CC1)c2=O` (stereo not drawn) [Compound 5, [3-[2-[4-(6-fluoro-1,2-benzisoxazol-3-yl)-1-piperidinyl]ethyl]-6,7,8,9-tetrahydro-2-methyl-4-oxo-4H-pyrido[1,2-a]pyrimidin-9-yl]butanoate], the ED50 with dopamine [1] (setting [5]) was found to be 0.008 mg/kg; with dopamine [2], 0.31 mg/kg; in the test on serotonin [3] it was 0.31 mg/kg; in the test with serotonin [4] it was 0.00125 mg/kg; in the test with norepinephrine it was 0.16 mg/kg.

Consider `Cc1nc2n(c(=O)c1CCN1CCC(c3noc4cc(F)ccc34)CC1)CCCC2O` (stereo not drawn) [Compound 1, 3-[2-[4-(6-fluoro-1,2-benzisoxazol-3-yl)-1-piperidinyl]ethyl]-6,7,8,9-tetrahydro-9-hydroxy-2-methyl-4H-pyrido[1,2-a]pyrimidin4-one], for which the ED50 in the test with dopamine [1] (setting [5]) turned out to be 0.015 mg/kg; in the test on dopamine [1] (4 h, read-out: (APO)-dog test, ED50, 4 hr) it was 0.015 mg/kg; with dopamine [1] (16 h, read-out: (APO)-dog test, ED50, 16 hr) it was 0.015 mg/kg; in the test with dopamine [2], 0.25 mg/kg; with serotonin [3], 0.31 mg/kg; in the test with serotonin [4], 0.002 mg/kg. Moreover, in the test with norepinephrine, the ED50 turned out to be 0.08 mg/kg.

With `Cc1nc2n(c(=O)c1CCN1CCC(c3noc4cc(F)ccc34)CC1)CCCC2O` (single isomer, unassigned; (+)) [Compound 2, (+)-3-[2-[4-(6-fluoro-1,2-benzisoxazol-3-yl)-1-piperidinyl]ethyl]-6,7,8,9-tetrahydro-9-hydroxy-2-methyl-4H-pyrido[1,2-a]-pyrimidin-4-one], the “(APO)-dog test, ED50, 4 hr” value in the test with dopamine [1] stood at 0.03 mg/kg. For the same compound, in the test with dopamine [1], the “(APO)-dog test, ED50, 16 hr” value is given as 0.06 mg/kg. Moreover, the ED50 was determined as 0.015 mg/kg in the test with dopamine [1] (setting [5]), 0.31 mg/kg with dopamine [2] and 1.25 mg/kg in the test on norepinephrine. In addition, in the test on serotonin [3], the “(TRY)-convulsions ED50” value was 0.08 mg/kg. Besides, the “(TRY)-hyperaemia ED50” value in the test with serotonin [4] amounted to 0.00031 mg/kg.

As for `CC(=O)OC1CCCn2c1nc(C)c(CCN1CCC(c3noc4cc(F)ccc34)CC1)c2=O` (stereo not drawn) [Compound 4, 3-[2-[4-(6-fluoro-1,2-benzisoxazol-3-yl)-1-piperidinyl]ethyl]-6,7,8,9-tetrahydro-2-methyl-4-oxo-4H-pyrido[1,2-a]pyrimidin-9-ol acetate(ester)], the ED50 in the test on dopamine [1] (setting [5]) is 0.015 mg/kg; with dopamine [2], 0.31 mg/kg; with serotonin [3], 0.08 mg/kg; with serotonin [4] it was 0.00031 mg/kg.
